Data as given in PubChem BioAssay AID1918996 (Molecular Pharmacology Branch, DTP, NCI, 2023).

Tested on: 349418-098-R-PDC complex spheroid growth
Assay: Anticancer human tumor 349418-098-R-PDC patient-derived lung adenocarcinoma cell line growth inhibition [AhR]
Conditions: for IC50: curve of first compound; for viability, T/C: stronger effect = lower value
Procedure, shortened: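 Spheroids combined tumor cells with HUVEC endothelial cells and human MSCs as stroma. AhR antagonists were paired with standard or investigational drugs, each dosed in half-log steps down from near clinical Cmax, or from 10 microM where Cmax was unknown.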

[1] = second compound 0.1 µM, first compound 0.00316 µM
[2] = second compound 0.1 µM, first compound 0.01 µM
[3] = second compound 0.1 µM, first compound 0.0316 µM
[4] = second compound 0.1 µM, first compound 0.1 µM
[5] = second compound 0.1 µM, first compound 0.316 µM
[6] = second compound 0.1 µM, first compound 1 µM
[7] = second compound 0.316 µM, first compound 0.00316 µM
[8] = second compound 0.316 µM, first compound 0.01 µM
[9] = second compound 0.316 µM, first compound 0.0316 µM
[10] = second compound 0.316 µM, first compound 0.1 µM
[11] = second compound 0.316 µM, first compound 0.316 µM
[12] = second compound 0.316 µM, first compound 1 µM
[13] = second compound 1 µM, first compound 0.00316 µM
[14] = second compound 1 µM, first compound 0.01 µM
[15] = second compound 1 µM, first compound 0.0316 µM
[16] = second compound 1 µM, first compound 0.1 µM
[17] = second compound 1 µM, first compound 0.316 µM
[18] = second compound 1 µM, first compound 1 µM
[19] = second compound 3.16 µM, first compound 0.00316 µM
[20] = second compound 3.16 µM, first compound 0.01 µM
[21] = second compound 3.16 µM, first compound 0.0316 µM
[22] = second compound 3.16 µM, first compound 0.1 µM
[23] = second compound 3.16 µM, first compound 0.316 µM
[24] = second compound 3.16 µM, first compound 1 µM
[25] = second compound 10 µM, first compound 0.00316 µM
[26] = second compound 10 µM, first compound 0.01 µM
[27] = second compound 10 µM, first compound 0.0316 µM
[28] = second compound 10 µM, first compound 0.1 µM
[29] = second compound 10 µM, first compound 0.316 µM
[30] = second compound 10 µM, first compound 1 µM
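Further: spheroids exposed to agents for seven days before luminescence viability read.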
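Wherever viability, T/C is given: spheroids also contain HUVEC endothelial cells and human MSC stroma.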

SMILES: Nc1ncn(C2CC(O)C(CO)O2)c(=O)n1 (stereo not given) + CC(CO)NC(=O)c1cc(-c2ccc(Cl)cc2)nn(-c2cnn(C)c2)c1=O
- IC50 (second compound 0.1 µM): 135 nM
- IC50 (second compound 0.316 µM): 63.3 nM
- IC50 (second compound 1 µM): 92.2 nM
- IC50 (second compound 3.16 µM): 103 nM
- IC50 (second compound 10 µM): 44.6 nM
- viability, T/C [1]: 101%
- viability, T/C [2]: 90.6%
- viability, T/C [3]: 73.4%
- viability, T/C [4]: 55.2%
- viability, T/C [5]: 36.6%
- viability, T/C [6]: 23.8%
- viability, T/C [7]: 108%
- viability, T/C [8]: 106%
- viability, T/C [9]: 72%
- viability, T/C [10]: 35%
- viability, T/C [11]: 43.1%
- viability, T/C [12]: 25.7%
- viability, T/C [13]: 78.6%
- viability, T/C [14]: 67.3%
- viability, T/C [15]: 67.9%
- viability, T/C [16]: 41.6%
- viability, T/C [17]: 43.3%
- viability, T/C [18]: 28.9%
- viability, T/C [19]: 55.4%
- viability, T/C [20]: 64.9%
- viability, T/C [21]: 84.4%
- viability, T/C [22]: 50.6%
- viability, T/C [23]: 30%
- viability, T/C [24]: 26.8%
- viability, T/C [25]: 51.9%
- viability, T/C [26]: 63.9%
- viability, T/C [27]: 49.8%
- viability, T/C [28]: 43.2%
- viability, T/C [29]: 24.8%
- viability, T/C [30]: 20.1%

SMILES: COc1cccc2c1C(=O)c1c(O)c3c(c(O)c1C2=O)CC(O)(C(=O)CO)CC3OC1CC(N)C(O)C(C)O1 (stereo not given) + Cc1cncc(-c2nc(NCCc3c[nH]c4ccccc34)c3ncn(C(C)C)c3n2)c1
- IC50 (second compound 0.1 µM): < 31.6 nM
- IC50 (second compound 0.316 µM): < 31.6 nM
- IC50 (second compound 1 µM): < 31.6 nM
- IC50 (second compound 3.16 µM): < 31.6 nM
- IC50 (second compound 10 µM): < 31.6 nM
- viability, T/C [3]: 12.1%
- viability, T/C [4]: 6.61%
- viability, T/C [5]: 1.44%
- viability, T/C [6]: 0.29%
- viability, T/C (second compound 0.1 µM, first compound 3.16 µM): 2.68%
- viability, T/C (second compound 0.1 µM, first compound 10 µM): 3.48%
- viability, T/C [9]: 11.5%
- viability, T/C [10]: 6.41%
- viability, T/C [11]: 1.16%
- viability, T/C [12]: 0.42%
- viability, T/C (second compound 0.316 µM, first compound 3.16 µM): 2.47%
- viability, T/C (second compound 0.316 µM, first compound 10 µM): 4%
- viability, T/C [15]: 10.5%
- viability, T/C [16]: 4.41%
- viability, T/C [17]: 1.26%
- viability, T/C [18]: 0.31%
- viability, T/C (second compound 1 µM, first compound 3.16 µM): 2.61%
- viability, T/C (second compound 1 µM, first compound 10 µM): 3.54%
- viability, T/C [21]: 4.44%
- viability, T/C [22]: 3.03%
- viability, T/C [23]: 0.5%
- viability, T/C [24]: 0.32%
- viability, T/C (second compound 3.16 µM, first compound 3.16 µM): 2.14%
- viability, T/C (second compound 3.16 µM, first compound 10 µM): 3.34%
- viability, T/C [27]: 0.79%
- viability, T/C [28]: 0.69%
- viability, T/C [29]: 0.23%
- viability, T/C [30]: 0.5%
- viability, T/C (second compound 10 µM, first compound 3.16 µM): 1.35%
- viability, T/C (second compound 10 µM, first compound 10 µM): 1.99%

SMILES: CC[C@@]1(O)C(=O)OCc2c1cc1n(c2=O)Cc2cc3c(CN(C)C)c(O)ccc3nc2-1 + CC(CO)NC(=O)c1cc(-c2ccc(Cl)cc2)nn(-c2cnn(C)c2)c1=O
- IC50 (second compound 0.1 µM): 24.6 nM
- IC50 (second compound 0.316 µM): 16.9 nM
- IC50 (second compound 1 µM): 10.6 nM
- IC50 (second compound 3.16 µM): 12.2 nM
- IC50 (second compound 10 µM): 3.67 nM
- viability, T/C (second compound 0.1 µM, first compound 0.000316 µM): 90%
- viability, T/C (second compound 0.1 µM, first compound 0.001 µM): 115%
- viability, T/C [1]: 97.5%
- viability, T/C [2]: 75.7%
- viability, T/C [3]: 43.9%
- viability, T/C [4]: 16.2%
- viability, T/C (second compound 0.316 µM, first compound 0.000316 µM): 136%
- viability, T/C (second compound 0.316 µM, first compound 0.001 µM): 118%
- viability, T/C [7]: 87.8%
- viability, T/C [8]: 60.9%
- viability, T/C [9]: 37.7%
- viability, T/C [10]: 12.8%
- viability, T/C (second compound 1 µM, first compound 0.000316 µM): 118%
- viability, T/C (second compound 1 µM, first compound 0.001 µM): 136%
- viability, T/C [13]: 72.4%
- viability, T/C [14]: 57.8%
- viability, T/C [15]: 29.3%
- viability, T/C [16]: 12.8%
- viability, T/C (second compound 3.16 µM, first compound 0.000316 µM): 92.9%
- viability, T/C (second compound 3.16 µM, first compound 0.001 µM): 93.2%
- viability, T/C [19]: 83.4%
- viability, T/C [20]: 56.3%
- viability, T/C [21]: 21.9%
- viability, T/C [22]: 12.4%
- viability, T/C (second compound 10 µM, first compound 0.000316 µM): 51.1%
- viability, T/C (second compound 10 µM, first compound 0.001 µM): 65%
- viability, T/C [25]: 51.3%
- viability, T/C [26]: 35%
- viability, T/C [27]: 23.1%
- viability, T/C [28]: 13.6%

SMILES: CCN(c1cc(-c2ccc(CN3CCOCC3)cc2)cc(C(=O)NCc2c(C)cc(C)[nH]c2=O)c1C)C1CCOCC1 + Cc1ccccc1N=Nc1ccc(NC(=O)c2ccnn2C)c(C)c1
- IC50 (second compound 0.1 µM): > 3000 nM
- IC50 (second compound 0.316 µM): > 3000 nM
- IC50 (second compound 1 µM): 1550 nM
- IC50 (second compound 3.16 µM): 1450 nM
- IC50 (second compound 10 µM): 154 nM
- viability, T/C (second compound 0.1 µM, first compound 0.00949 µM): 68.2%
- viability, T/C (second compound 0.1 µM, first compound 0.03 µM): 97.2%
- viability, T/C (second compound 0.1 µM, first compound 0.0949 µM): 67.4%
- viability, T/C (second compound 0.1 µM, first compound 0.3 µM): 56.3%
- viability, T/C (second compound 0.1 µM, first compound 0.949 µM): 86.4%
- viability, T/C (second compound 0.1 µM, first compound 3 µM): 53.1%
- viability, T/C (second compound 0.316 µM, first compound 0.00949 µM): 101%
- viability, T/C (second compound 0.316 µM, first compound 0.03 µM): 69.1%
- viability, T/C (second compound 0.316 µM, first compound 0.0949 µM): 95.9%
- viability, T/C (second compound 0.316 µM, first compound 0.3 µM): 72.4%
- viability, T/C (second compound 0.316 µM, first compound 0.949 µM): 70.4%
- viability, T/C (second compound 0.316 µM, first compound 3 µM): 64%
- viability, T/C (second compound 1 µM, first compound 0.00949 µM): 87.8%
- viability, T/C (second compound 1 µM, first compound 0.03 µM): 121%
- viability, T/C (second compound 1 µM, first compound 0.0949 µM): 85.5%
- viability, T/C (second compound 1 µM, first compound 0.3 µM): 78.3%
- viability, T/C (second compound 1 µM, first compound 0.949 µM): 56.5%
- viability, T/C (second compound 1 µM, first compound 3 µM): 42%
- viability, T/C (second compound 3.16 µM, first compound 0.00949 µM): 76.8%
- viability, T/C (second compound 3.16 µM, first compound 0.03 µM): 68.9%
- viability, T/C (second compound 3.16 µM, first compound 0.0949 µM): 75.2%
- viability, T/C (second compound 3.16 µM, first compound 0.3 µM): 59%
- viability, T/C (second compound 3.16 µM, first compound 0.949 µM): 55.8%
- viability, T/C (second compound 3.16 µM, first compound 3 µM): 42.3%
- viability, T/C (second compound 10 µM, first compound 0.00949 µM): 59.4%
- viability, T/C (second compound 10 µM, first compound 0.03 µM): 71.1%
- viability, T/C (second compound 10 µM, first compound 0.0949 µM): 54.9%
- viability, T/C (second compound 10 µM, first compound 0.3 µM): 38.4%
- viability, T/C (second compound 10 µM, first compound 0.949 µM): 49.2%
- viability, T/C (second compound 10 µM, first compound 3 µM): 42.1%

SMILES: CC1COCCN1c1cc(-c2ccnn2C)c2ccnc(-c3ccn[nH]3)c2n1 (stereo not given) + Cc1ccccc1N=Nc1ccc(NC(=O)c2ccnn2C)c(C)c1
- IC50 (second compound 0.1 µM): 71.3 nM
- IC50 (second compound 0.316 µM): 102 nM
- IC50 (second compound 1 µM): 72.5 nM
- IC50 (second compound 3.16 µM): 70.7 nM
- IC50 (second compound 10 µM): 39.1 nM
- viability, T/C [1]: 84.5%
- viability, T/C [2]: 96.5%
- viability, T/C [3]: 61%
- viability, T/C [4]: 47.9%
- viability, T/C [5]: 13.9%
- viability, T/C [6]: 10.5%
- viability, T/C [7]: 64.4%
- viability, T/C [8]: 96.8%
- viability, T/C [9]: 81%
- viability, T/C [10]: 50.3%
- viability, T/C [11]: 15.6%
- viability, T/C [12]: 10.4%
- viability, T/C [13]: 107%
- viability, T/C [14]: 111%
- viability, T/C [15]: 78.6%
- viability, T/C [16]: 39.4%
- viability, T/C [17]: 15.8%
- viability, T/C [18]: 11.3%
- viability, T/C [19]: 61.6%
- viability, T/C [20]: 78.2%
- viability, T/C [21]: 76.2%
- viability, T/C [22]: 40.5%
- viability, T/C [23]: 18.6%
- viability, T/C [24]: 11.9%
- viability, T/C [25]: 60.4%
- viability, T/C [26]: 61.9%
- viability, T/C [27]: 55.4%
- viability, T/C [28]: 26.9%
- viability, T/C [29]: 17.3%
- viability, T/C [30]: 12.9%
